Source: patent US6177404A (Merck & Co., Inc., priority 1998, dated 2001)

Each compound was assayed on free PSA (assay: not given). Conditions: not given.
With “Ac-AlaAspLysAlaLysTyrGln.vertline.SerSer(Cha)-NHNH2” the cleaved bond was “Gln-Ser”. In the case of “Ac-AlaAsnLysIleSerTyrGln.vertline.SerAlaSerThrGlu-amide”, the cleaved bond is reported as “Gln-Ser”. With “Ac-AsnLysIleSerTyrGln.vertline.SerSer-amide” the cleaved bond was “Gln-Ser”. For “Ac-LysIleSerTyrGln.vertline.SerSer-amide”, the cleaved bond was “Gln-Ser”. “Ac-AlaAsnLysAlaSerTyrGln.vertline.SerAlaSerThrGlu-amide” was tested, and the cleaved bond was “Gln-Ser”. With “Ac-AlaAsnLysIleSerTyrGln.vertline.SerSerSerThrGlu-amide” the cleaved bond was “Gln-Ser”. For “Ac-AlaSerTyrGln.vertline.SerSerLeu-amide”, the cleaved bond was “Gln-Ser”. In the case of “Ac-hArg(Cha)Gln.vertline.SerSerSer(ethylester-Leu)”, the cleaved bond is reported as “Gln-Ser”. For “Ac-AlaAsnLysIleSerTyrTyr.vertline.SerSerSerThrGlu-amide”, the cleaved bond was “Tyr-Ser”. With “Ac-hArgTyrGln.vertline.SerSerSer(Ethylester-Leu)” the cleaved bond was “Gln-Ser”. With “Ac-SerTyrGln.vertline.SerSerThrGlu-amide” the cleaved bond was “Gln-Ser”. In the case of “Ac-AlaSerTyrGln.vertline.SerSerSerThrGlu-amide”, the cleaved bond is reported as “Gln-Ser”. “Ac-AlaAsnLysIleSerTyrTyr.vertline.SerAlaSerThrGlu-amide” was tested, and the cleaved bond was “Tyr-Ser”. With “Ac-AlaSerTyrGln.vertline.SerSerThrGlu-amide” the cleaved bond was “Gln-Ser”. “Ac-AlaAsnLysIleSerTyrGln.vertline.SerSerSerThrLeu-amide” was tested, and the cleaved bond was “Gln-Ser”. With “Ac-AlaAsnLysSerTyrGln.vertline.SerSerThrGlu-amide” the cleaved bond was “Gln-Ser”. With “Ac-AlaAsnLysAlaSerTyrGln.vertline.SerAlaSerCys-amide” the cleaved bond was “Gln-Ser”. For “Ac-AlaAsnSerTyrGln.vertline.SerSerSerThrGlu-amide”, the cleaved bond was “Gln-Ser”. “Ac-SerTyrGln.vertline.SerSerSerThrGlu-amide” was tested, and the cleaved bond was “Gln-Ser”. For “Ac-AlaAsnLysIleSerTyrGln.vertline.SerSerThrGlu-amide”, the cleaved bond was “Gln-Ser”. In the case of “AlaAsnLysIleSerTyrGln.vertline.SerSerSerThrGlu-amide”, the cleaved bond is reported as “Gln-Ser”. In the case of Ac-hArgTyrGln.vertline.SerSerSer(MeLeu), the cleaved bond is reported as “Gln-Ser”. For “Ac-AlaAsnLysIleSerTyrGln.vertline.SerAlaLysThrGlu-amide”, the cleaved bond was “Gln-Ser”. In the case of “Ac-AlaAsnGluIleSerTyrGln.vertline.SerAlaSerThrGlu-amide”, the cleaved bond is reported as “Gln-Ser”. In the case of “Ac-AlaAsnLysIleSerTyrGln.vertline.SerSerLysThrGlu-amide”, the cleaved bond is reported as “Gln-Ser”. For “Ac-AlaAsnLysIleSerTyrGln.vertline.SerThrGlu-amide”, the cleaved bond was “Gln-Ser”. “Ac-AlaAsnLysIleSerTyrGln.vertline.SerSerGlnThrGlu-amide” was tested, and the cleaved bond was “Gln-Ser”. With “Ac-AlaAsnLysIleSerTyrGln.vertline.SerSerSerThrLeu” the cleaved bond was “Gln-Ser”.

Each compound was assayed on LNCaP prostate tumor cells (assay: In vitro Alamar Blue cytotoxicity assay of non-cleavable oligopeptide-doxorubicin conjugates). Conditions: FIG. 4 legend, cells incubated 3 days at 37° C., cell line not named in legend (LNCaP or DuPRO in method).
Assay type: cell-based, human
Method: The cytotoxicities of the non-cleaveable oligopeptide-doxorubicin conjugates, prepared as described in Example 4, against a line of cells which is known to be killed by unmodified doxorubicin were assessed with an Alamar Blue assay. Specifically, cell cultures of LNCaP prostate tumor cells, which are a human metastatic prostate adenocarcinoma isolated from a needle biopsy of a lymph node (LNCaP.FGC: American Type Culture Collection, ATCC CRL 1740), or DuPRO cells in 96 well plates were diluted with medium containing various concentrations of a given conjugate (final plate well volume of 200 μl). The cells were incubated for 3 days at 37° C. and then 20 μl of Alamar Blue was added to the assay well. The cells were further incubated and the assay plates were read on a EL-310 ELISA reader at the dual wavelengths of 570 and 600 nm at 4 and 7 hours after addition of Alamar Blue. Relative percentage viability at the various concentration of conjugate tested was then calculated versus control (no conjugate) cultures. Cytotoxicities of unmodified doxorubicin and unmodified oligopeptide were also assessed.
`COc1cccc2c1C(=O)c1c(O)c3c(c(O)c1C2=O)C[C@@](O)(C(=O)CO)C[C@@H]3O[C@H]1C[C@H](N)[C@H](O)[C@H](C)O1` [doxorubicin] was tested, and the EC50 was 300 nM.
